For experiment [1] the following is noted: rats, exogenously applied agonist (Shirashi et al 2005); cited from earlier work.
Experiment [2] concerns the target T1, CRTH2 receptor (Homo sapiens, UniProt Q9Y5Y4).
T1 sequence (Q9Y5Y4 1-395): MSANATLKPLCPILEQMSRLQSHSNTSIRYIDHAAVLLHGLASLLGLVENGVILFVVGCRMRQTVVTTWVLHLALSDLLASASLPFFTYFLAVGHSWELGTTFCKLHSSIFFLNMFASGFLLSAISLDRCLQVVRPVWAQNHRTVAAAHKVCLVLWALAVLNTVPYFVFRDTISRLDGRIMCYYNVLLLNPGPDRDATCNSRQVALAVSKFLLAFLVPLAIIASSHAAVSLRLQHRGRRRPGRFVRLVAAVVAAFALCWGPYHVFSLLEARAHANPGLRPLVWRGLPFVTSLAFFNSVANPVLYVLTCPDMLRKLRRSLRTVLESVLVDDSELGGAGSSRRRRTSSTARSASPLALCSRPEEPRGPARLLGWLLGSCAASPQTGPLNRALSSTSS
Nature of the experiment: CRTH2 Radioligand Binding assay ([3H]-PGD2 displacement, SPA). Particulars: HEK cell membranes expressing the CRTH2 receptor, 1 nM [3H]-PGD2; Ki from IC50 by Cheng-Prusoff. Also noted: expressed in transfected cells; host or cells: HEK cell membranes. As to the method: Radioligand Binding Assay
The receptor binding assay is performed in a final volume of 200 μL binding buffer [10 mM BES (pH 7.4), 1 mM EDTA, 10 mM manganese chloride, 0.01% BSA] and 1 nM [^3H]-PGD2 (Amersham Biosciences UK Ltd). Ligands are added in assay buffer containing a constant amount of DMSO (1% by volume). Total binding is determined using 1% by volume of DMSO in assay buffer and non-specific binding is determined using 10 μM of unlabeled PGD2 (Sigma). Human embryonic kidney (HEK) cell membranes (3.5 μg) expressing the CRTH2 receptor are incubated with 1.5 mg wheatgerm agglutinin SPA beads and 1 nM [^3H]-PGD2 (Amersham Biosciences UK Ltd) and the mixture incubated for 3 hours at room temperature. Bound [^3H]-PGD2 is detected using a Microbeta TRILUX liquid scintillation counter (Perkin Elmer). Compound IC50 value is determined using a 6-point dose response curve in duplicate with a semi-log compound dilution series. IC50 calculations are performed using Excel and XLfit (Microsoft), and this value is used to determine a Ki value for the test compound using the Cheng-Prusoff equation.

Experiment [3] addresses T1, CRTH2 receptor. In words: Calcium mobilisation (flux) functional assay. To be noted: CHO-K1 cells co-expressing CRTH2 receptor and Gα16; PGD2 agonist at EC80. Details: expressed in transfected cells. It counts as cell-based. As to the method: Calcium Mobilisation (Flux) Assay
Stable CHO-K1 cells co-expressing the CRTH2 receptor and the G-protein Gα16 are seeded (40,000 cells per well in a plating volume of 75 μL in F-12 Hams supplemented with 1% foetal bovine serum) into collagen-coated 96-well plates 24 hours prior to the assay. The cells are then loaded with a fluorescence-imaging plate reader (FLIPR) calcium kit dye (Calcium 3 kit, Molecular Devices Ltd) containing 5 mM final concentration of probenecid and incubated at 37° C. for 1 hour in a 5 % CO2 atmosphere. The fluorescence emission caused by intracellular calcium mobilization elicited by the PGD2 at the CRTH2 receptor is determined with a FLEXstation benchtop scanning and integrated fluid transfer workstation (Molecular Devices Ltd). To detect antagonists and determine compound IC50, compounds are pre-incubated at varying concentrations with the loaded cells for 15 minutes at 37° C., 5 % CO2, prior to the addition of the agonist at its EC80 value. Compounds and agonist are added in Hanks balanced salt solution containing 20 mM HEPES and 0.1% BSA). The fractional response values for each well are calculated by subtracting the basal response from the peak response. Results are calculated as the mean of triplicate wells using Excel and XLfit (Microsoft).

Molecules are shown by their SMILES.

Take `O=C(O)CCCCCCC1C(=O)NC(=O)N1CCC(O)C1CCCCC1` (stereo not drawn) [BW 245C]: the pulmonary eosinophilia result in experiment [1] is reported as “no effect”.

Usually Ki stands for a dissociation constant, usually derived from enzyme kinetics or from competition with a known ligand. The low end stands for tighter binding, the high end for weaker binding. With `Cc1c(CC(=O)O)c2ccc(F)cn2c1Sc1ccc(Cl)cc1Cl` [Example 1, [3-(2,4dichlorophenylsulfanyl)-6-fluoro-2-methylindolizin-1-yl]acetic acid], the Ki at CRTH2 receptor [2] was found to be 27 nM. What is called IC50 is the concentration needed to halve the response being measured. For `Cc1c(CC(=O)O)c2ccc(F)cn2c1Sc1ccc(S(C)(=O)=O)cc1F` [Example 2, [6-fluoro-3-(2-fluoro-4-methanesulfonylphenylsulfanyl)-2-methylindolizin-1-yl]acetic acid], the IC50 on CRTH2 receptor [3] was found to be 6.6 nM. This compound also had a Ki on CRTH2 receptor [2] of 0.2 nM. In the same order, the values of `Cc1c(CC(=O)O)c2ccc(F)cn2c1Sc1ccc(S(C)(=O)=O)cc1C(F)(F)F` [Example 3, [6-fluoro-3-(4-methanesulfonyl-2-trifluoromethylphenylsulfanyl)-2-methylindolizin-1-yl]acetic acid] are 11 nM and 0.9 nM.

`Cc1c([C@@H](C)C(=O)O)c2ccc(F)cn2c1Sc1ccc(S(C)(=O)=O)cc1` [Example 4, (R)-2-[6-fluoro-3-(4-methanesulfonylphenylsulfanyl)-2-methylindolizin-1-yl]propionic acid] registered a Ki on CRTH2 receptor [2] of 29 nM.

Take `CCS(=O)(=O)c1ccc(Sc2c(C)c(CC(=O)O)c3ccc(F)cn23)cc1` [Example 5, [3-(4-ethanesulfonylphenylsulfanyl)+fluoro-2-methylindolizin-1-yl]acetic acid]: at CRTH2 receptor [3], the IC50 is 8.9 nM. At CRTH2 receptor [2], this compound had a Ki of 0.8 nM.

The compound `Cc1c([C@H](C)C(=O)O)c2ccc(F)cn2c1Sc1ccc(S(C)(=O)=O)cc1` [Example 6, (S)-2-[6-fluoro-3-(4-methanesulfonylphenylsulfanyl)-2-methylindolizin-1-yl]propionic acid] registered an inhibition constant (Ki) at CRTH2 receptor [2] of 57 nM.

Compound `CCS(=O)(=O)Nc1ccc(S(=O)(=O)c2c(C)c(CC(=O)O)c3ccc(F)cn23)cc1` [Example 7] returned a Ki on CRTH2 receptor [2] of 47 nM. On the same count and under the same terms, the same measure for `Cc1c(CC(=O)O)c2cc(Cl)c(F)cn2c1Sc1ccc(S(C)(=O)=O)cc1` [Example 8, [7-chloro-6-fluoro-3-(4-methanesulfonylphenylsulfanyl)-2-methylindolizin-1-yl]acetic acid]: 0.4 nM. In turn, `Cc1c(CC(=O)O)c2cc(C#N)ccn2c1Sc1ccc(S(C)(=O)=O)cc1Cl` [Example 9, [3-(2-chloro-4-methanesulfonylphenylsulfanyl)-7-cyano-2-methylindolizin-1-yl]acetic acid] had a Ki at CRTH2 receptor [2] of 2.9 nM. On the same count and under the same terms, the same measure for `Cc1c(CC(=O)O)c2ccc(C#N)cn2c1Cc1ccc(S(C)(=O)=O)cc1` [Example 10, [6-cyano-3-(4-methanesulfonylbenzyl)-2-methylindolizin-1-yl]acetic acid]: 1.7 nM.

As to `Cc1c(CC(=O)O)c2cc(C#N)ccn2c1Cc1ccc(Cl)cc1` [Example 11, [3-(4-chlorobenzyl)-7-cyano-2-methylindolizin-1-yl]acetic acid], the Ki at CRTH2 receptor [2] turned out to be 26 nM. The same measure, in the same setting: next, `Cc1c(CC(=O)O)c2ccc(C#N)cn2c1Cc1ccc2cc(F)ccc2n1` [Example 12, [6-cyano-3-(6-fluoroquinolin-2-ylmethyl)-2-methylindolizin-1-yl]acetic acid]: 7.2 nM; `COc1ccc(Sc2c(C)c(CC(=O)O)c3ccc(F)cn23)cc1` [Example 13, [6-fluoro-3-(4-methoxyphenylsulfanyl)-2-methylindolizin-1-yl]acetic acid]: 44 nM; `COc1ccc(Sc2c(C)c(CC(=O)O)c3cc(Cl)c(F)cn23)cc1` [Example 14, [7-chloro-6-fluoro-3-(4-methoxyphenylsulfanyl)-2-methylindolizin-1-yl]acetic acid]: 23 nM. For the compound `Cc1c(CC(=O)O)c2ccc(F)cn2c1Sc1ccc(S(=O)(=O)NC2CC2)cc1` [Example 16, [3-(4-cyclopropylsulfamoylphenylsulfanyl)-6-fluoro-2-methylindolizin-1-yl]acetic acid], the IC50 at CRTH2 receptor [3] was determined as 22 nM. Affinity at CRTH2 receptor [2] was put at a Ki of 0.6 nM.

For `O=C(O)CCC/C=C\C[C@@H]1[C@@H](/C=C/[C@@H](O)COc2ccc(I)cc2)[C@H]2CC[C@@H]1O2` [I-BOP], in experiment [1], the pulmonary eosinophilia result is on record as “no effect”.

The record behind these values is patent publication US20100010034A1, “CRTH2 ANTAGONISTS” (priority 2006, published 2010).
